The values that follow come from patent US20060046982A1, “Orthomolecular medical use of L-citrulline for capillary endothelial protection and adjacent cell protection in neurodegenerative disease” (priority 2004, published 2006).

Series [1] concerns Human plasma Cohn fraction 1V-1 protein. The series is described as follows: Turbidimetric test of protein insolubility induced by Fenton-like reaction (ferrous sulfate + H2O2), nephelometer. The class given is biochemical. The following applies: amino acid at 400 microMol/L; 100 microMol/L ferrous sulfate + 40 microMol/L H2O2; pH 5.7-5.8; 37° Celsius, 30 minutes. The protocol:
Human plasma Cohn fraction 1V-1 protein solutions (predominately alpha glycoglobulins, rich in lipid—obtained from Sigma Chemical Co.) of 40 mg/dl in saline solutions (140 NaCl mMol/L) were employed at existing pHs of 5.7-5.8 without additional confounding non-protein buffer. A nephelometer measured the intensity of reflected Tydall light. Developed turbidities were measured to quantify the insolubities of the dissolved proteins that were induced by introducing 100 microMol/L of ferrous sulfate and 40 microMol/L of H2O2 with incubations at 37° Celsius for 30 minutes. Insolubilities were standardized as the percent of maximal possible induced turbidities by comparison to similar protein solutions after mixing with the protein-precipitating agent sulfosalicylic acid at 1.5 g/dL.

Series [2] can be described thus: Case report: person taking L-citrulline capsules daily for 8 years. As to conditions: donor one; long-term L-citrulline intake.

As for `NC(=O)CC[C@H](N)C(=O)O` [L-glutamine], the “mean inhibition of the insolubilities induced by the Fenton-like reactions” value (“mean inhibition” for short) in series [1] is listed as “did not inhibit”.

In the case of `NC(=O)NCCC[C@H](N)C(=O)O` [L-citrulline], in series [2], the Fasting blood glucose result is listed as “within the normal range”, the Hematocrit is recorded as 38.5%, the blood hemoglobin is listed as 13.6 g/dL and the total leucocyte count is listed as 6.800 /mcL. Also, in series [1], the “mean inhibition” value is listed as “did not inhibit”.

Turning to `N[C@@H](Cc1c[nH]cn1)C(=O)O` [L-histidine free base, L-histidine], the “mean inhibition” value in series [1] turned out to be 52.6%.
